For the data set, the system named is zebrafish (Danio rerio) AB strain embryos. As to the kind of experiment: Acute toxicity testing using zebrafish embryos (mortality after 48 hr exposure). Type of data set: in vivo. The following applies: positive control, 3.7 mg/L; 48 hr exposure at 26° C. How it is done: Extracts prepared as described in Example 1 were tested for acute toxicity using zebrafish (Danio rerio) AB strain embryos. BB cream extracts were diluted into zebrafish embryo culture medium at nominal concentrations of 0.3, 0.6, 1.4, 3.0 and 6.7 g/L. Zebrafish AB strain embryos of 4-128 cell stages were exposed to extract dilutions in a 96-well plate at 1 embryo per well. Each concentration was tested with 20 embryos. Zebrafish embryo culture medium and 3.7 mg/L dichloroaniline were included as negative and positive controls, respectively. After 48 hr exposure at 26° C., zebrafish embryos were observed under a stereomicroscope and fish embryos that were coagulated, tail not detached, and having no heart beat were marked as dead. Mortality rate for each concentration was calculated as the acute toxicity endpoint. The mortality rate for the negative control was 0% and for the positive control was 30%. […] Of the three BB cream extracts, brand C was the most toxic and brand B was the least toxic to zebrafish embryos.

Molecules are shown by their SMILES.

In turn, `Nc1ccc(Cl)c(Cl)c1` [dichloroaniline] gave a mortality rate of 30%.

Values taken from patent US20170356900A1, “TOXICANT ASSAYS FOR COSMETIC PRODUCTS” (priority 2016, published 2017).
